Laboratory results published in US20250136596A1, “MEMBRANE-ASSOCIATED TYROSINE- AND THREONINE-SPECIFIC CDC2-INHIBITORY KINASE (PKMYT1) INHIBITORS AND USES THEREOF” (Insilico Medicine IP Limited, priority 2022, published 2025).

Each compound was assayed against PKMYT1 (Homo sapiens (Human), UniProt Q99640) (assay: PKMYT1 HTRF Assay). Settings: Tracer 178, GST-Tb; compound 10 μM to 0.5 nM; read-out: MYT1 HTRF IC50.
Sequence of PKMYT1 (Q99640 whole entry): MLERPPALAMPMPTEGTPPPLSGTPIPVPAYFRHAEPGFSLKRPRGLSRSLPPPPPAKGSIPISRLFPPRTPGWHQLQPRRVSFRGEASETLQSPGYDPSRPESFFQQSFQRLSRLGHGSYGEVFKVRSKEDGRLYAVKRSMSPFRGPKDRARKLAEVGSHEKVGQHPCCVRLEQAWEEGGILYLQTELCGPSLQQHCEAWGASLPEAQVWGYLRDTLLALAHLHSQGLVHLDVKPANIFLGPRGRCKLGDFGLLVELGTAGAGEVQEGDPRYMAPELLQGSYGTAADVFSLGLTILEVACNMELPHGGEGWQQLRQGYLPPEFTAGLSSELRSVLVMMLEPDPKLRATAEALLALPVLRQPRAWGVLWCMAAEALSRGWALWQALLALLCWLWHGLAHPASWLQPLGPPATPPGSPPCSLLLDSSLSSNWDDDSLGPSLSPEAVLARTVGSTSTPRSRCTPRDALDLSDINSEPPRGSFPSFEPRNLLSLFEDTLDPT
Type: binding
Protocol: Example A: PKMYT1 HTRF Assay
Compound serial dilution is performed by Echo, and the final concentrations vary from 10 μM to 0.5 nM. This was filled by the addition of 5 μL/well of Enzyme solution to the assay plate containing the compound. The plate was centrifuged at 1000 rpm for 1 minute, and incubate 15 minutes at 25 ? . Then 5 μL/well of tracer solution (Tracer 178) was added to initiate the reaction, and incubate for 60 minutes at 25° C. Next 5 μL GST-Tb was added into the assay plate, the plate was centrifuged at 1000 rpm for 1 minute, and incubate for 15 minutes at 25 ? . The assay plate was read on Envision.
`Cc1ncc(-c2cc3c(C#N)c(-c4c(C)ccc(O)c4C)cnc3[nH]2)cn1` (atropisomer, axis not shown) [Example 32, (S)-5-(3-hydroxy-2,6-dimethylphenyl)-2-(2-methylpyrimidin-5-yl)-1H-pyrrolo[2,3-b]pyridine-4-carbonitrile] was tested, and the IC50 was less than 0.01 µM. `Cc1ncc(-c2[nH]c3ncc(-c4c(C)ccc(O)c4C)c(C#N)c3c2Cl)cn1` (atropisomer, axis not shown) [Example 33, (S)-3-chloro-5-(3-hydroxy-2,6-dimethylphenyl)-2-(2-methylpyrimidin-5-yl)-1H-pyrrolo[2,3-b]pyridine-4-carbonitrile] was tested, and the IC50 was less than 0.01 µM. Work on `Cc1ncc(-c2cc3c(C#N)c(-c4c(C)ccc(O)c4C)cnc3[nH]2)c(C)n1` (atropisomer, axis not shown) [Example 77, (R)-2-(2,4-dimethylpyrimidin-5-yl)-5-(3-hydroxy-2,6-dimethylphenyl)-1H-pyrrolo[2,3-b]pyridine-4-carbonitrile] yielded an IC50 of 0.01 to 0.05 µM. `Cc1ccc(O)c(C)c1-c1cnc2[nH]c(-c3ccc(N4CCN(C)CC4)nc3C)nc2c1` [Example 1, 2,4-dimethyl-3-(2-(2-methyl-6-(4-methylpiperazin-1-yl)pyridin-3-yl)-3H-imidazo[4,5-b]pyridin-6-yl)phenol] was tested, and the IC50 was 0.05 to 0.5 µM. In the case of `Cc1ccc(O)c(C)c1-c1cnc2[nH]c(-c3ccc(N4CCN(C)CC4)nc3C)nc2c1C` [Example 2, 2,4-dimethyl-3-(7-methyl-2-(2-methyl-6-(4-methylpiperazin-1-yl)pyridin-3-yl)-3H-imidazo[4,5-b]pyridin-6-yl)phenol], the IC50 is reported as 0.5 to 5 µM. In the case of `Cc1ccc(O)c(C)c1-c1cnc2[nH]c(-c3ccc(N4CCN(C)CC4)nc3)c(C)c2c1` [Example 3, 2,4-dimethyl-3-(3-methyl-2-(6-(4-methylpiperazin-1-yl)pyridin-3-yl)-1H-pyrrolo[2,3-b]pyridin-5-yl)phenol], the IC50 is reported as 0.05 to 0.5 µM. `Cc1ccc(O)c(C)c1-c1cnc2[nH]c(-c3ccc(N4CCN(C)CC4)nc3)cc2c1` [Example 4, 2,4-dimethyl-3-(2-(6-(4-methylpiperazin-1-yl)pyridin-3-yl)-1H-pyrrolo[2,3-b]pyridin-5-yl)phenol] gave an IC50 of 0.05 to 0.5 µM. Work on `Cc1ccc(-c2cc3cc(-c4c(C)ccc(O)c4C)cnc3[nH]2)cn1` [Example 5, 2,4-dimethyl-3-(2-(6-methylpyridin-3-yl)-1H-pyrrolo[2,3-b]pyridin-5-yl)phenol] yielded an IC50 of 0.01 to 0.05 µM. `CC(=O)N1CC=C(c2cc3cc(-c4c(C)ccc(O)c4C)cnc3[nH]2)CC1` [Example 6, 1-(4-(5-(3-hydroxy-2,6-dimethylphenyl)-1H-pyrrolo[2,3-b]pyridin-2-yl)-3,6-dihydropyridin-1 (2H)-yl)ethan-1-one] gave an IC50 of 0.05 to 0.5 µM. `Cc1ncc(-c2cc3cc(-c4c(C)ccc(O)c4C)cnc3[nH]2)cn1` [Example 7, 2,4-dimethyl-3-(2-(2-methylpyrimidin-5-yl)-1H-pyrrolo[2,3-b]pyridin-5-yl)phenol] gave an IC50 of 0.01 to 0.05 µM. Compound `COc1cncc(-c2cc3cc(-c4c(C)ccc(O)c4C)cnc3[nH]2)c1` [Example 8, 3-(2-(5-methoxypyridin-3-yl)-1H-pyrrolo[2,3-b]pyridin-5-yl)-2,4-dimethylphenol] has an IC50 of 0.01 to 0.05 µM. `Cc1ccc(O)c(C)c1-c1cnc2[nH]c(-c3ccn(C)c(=O)c3)cc2c1` [Example 9, 4-(5-(3-hydroxy-2,6-dimethylphenyl)-1H-pyrrolo[2,3-b]pyridin-2-yl)-1-methylpyridin-2 (1H)-one] was tested, and the IC50 was 0.01 to 0.05 µM. Work on `Cc1ccc(-c2cc3c(Cl)c(-c4c(C)ccc(O)c4C)cnc3[nH]2)cn1` [Example 10, 3-(4-chloro-2-(6-methylpyridin-3-yl)-1H-pyrrolo[2,3-b]pyridin-5-yl)-2,4-dimethylphenol] yielded an IC50 of less than 0.01 µM. `Cc1ccc(-c2cc3nc(-c4c(C)ccc(O)c4C)cnc3[nH]2)cn1` [Example 11, 2,4-dimethyl-3-(6-(6-methylpyridin-3-yl)-5H-pyrrolo[2,3-b]pyrazin-2-yl)phenol] showed an IC50 of less than 0.01 µM. With `Cc1ncc(-c2[nH]c3ncc(-c4c(C)ccc(O)c4C)nc3c2F)cn1` [Example 12, 3-(7-fluoro-6-(2-methylpyrimidin-5-yl)-5H-pyrrolo[2,3-b]pyrazin-2-yl)-2,4-dimethylphenol] the IC50 was 0.01 to 0.05 µM. `Cc1ncc(-c2[nH]c3ncc(-c4c(C)ccc(O)c4C)nc3c2C)cn1` [Example 13, 2,4-dimethyl-3-(7-methyl-6-(2-methylpyrimidin-5-yl)-5H-pyrrolo[2,3-b]pyrazin-2-yl)phenol] showed an IC50 of 0.01 to 0.05 µM. `Cc1ccc(O)c(C)c1-c1cnc2[nH]c(-c3cnc(N)nc3)c(C#CC(C)(C)O)c2n1` [Example 14, 3-(6-(2-aminopyrimidin-5-yl)-7-(3-hydroxy-3-methylbut-1-yn-1-yl)-5H-pyrrolo[2,3-b]pyrazin-2-yl)-2,4-dimethylphenol] showed an IC50 of less than 0.01 µM. `Cc1ncc(-c2cc3nc(-c4c(C)ccc(O)c4C)cnc3[nH]2)cn1` [Example 15, 2,4-dimethyl-3-(6-(2-methylpyrimidin-5-yl)-5H-pyrrolo[2,3-b]pyrazin-2-yl)phenol] showed an IC50 of 0.01 to 0.05 µM. For `Cc1ncc(-c2[nH]c3ncc(-c4c(C)ccc(O)c4C)nc3c2Cl)cn1` [Example 16, 3-(7-chloro-6-(2-methylpyrimidin-5-y1)-5H-pyrrolo[2,3-b]pyrazin-2-yl)-2,4-dimethylphenol], the IC50 was less than 0.01 µM. Compound `Cc1ccc(O)c(C)c1-c1cnc2[nH]c(-c3cnc(N4CC(C)(O)C4)nc3)c(Cl)c2n1` [Example 17, 1-(5-(7-chloro-2-(3-hydroxy-2,6-dimethylphenyl)-5H-pyrrolo[2,3-b]pyrazin-6-yl)pyrimidin-2-yl)-3-methylazetidin-3-ol] has an IC50 of less than 0.01 µM. `Cc1ccc(O)c(C)c1-c1cnc2[nH]c(-c3cnc(N4CC(O)C4)nc3)cc2n1` [Example 18, 1-(5-(2-(3-hydroxy-2,6-dimethylphenyl)-5H-pyrrolo[2,3-b]pyrazin-6-yl)pyrimidin-2-yl)azetidin-3-ol] gave an IC50 of less than 0.01 µM. `Cc1ncc(-c2cc3nc(-c4c(C)ccc(O)c4C)cnc3[nH]2)s1` [Example 19, 2,4-dimethyl-3-(6-(2-methylthiazol-5-y1)-5H-pyrrolo[2,3-b]pyrazin-2-yl)phenol] showed an IC50 of 0.01 to 0.05 µM. `Cc1ncc(-c2[nH]c3ncc(-c4c(C)ccc(O)c4C)nc3c2C#CC(C)(C)O)cn1` [Example 20, 3-(7-(3-hydroxy-3-methylbut-1-yn-1-yl)-6-(2-methylpyrimidin-5-yl)-5H-pyrrolo[2,3-b]pyrazin-2-yl)-2,4-dimethylphenol] was tested, and the IC50 was less than 0.01 µM. Work on `Cc1ccc(O)c(C)c1-c1cnc2[nH]c(-c3cnc(N4C[C@@H]5C[C@H]4CO5)nc3)c(C#CC(C)(C)O)c2n1` [Example 21, 3-(6-(2-((1S,4S)-2-oxa-5-azabicyclo[2.2.1]heptan-5-yl)pyrimidin-5-yl)-7-(3-hydroxy-3-methylbut-1-yn-1-yl)-5H-pyrrolo[2,3-b]pyrazin-2-yl)-2,4-dimethylphenol] yielded an IC50 of less than 0.01 µM. Compound `Cc1ccc(O)c(C)c1-c1cnc2[nH]c(-c3ccc4scnc4c3)cc2c1` [Example 22, 3-(2-(benzo[d]thiazol-5-yl)-1H-pyrrolo[2,3-b]pyridin-5-yl)-2,4-dimethylphenol] has an IC50 of 0.05 to 0.5 µM. For `Cc1ncc(-c2[nH]c3ncc(-c4c(C)ccc(O)c4C)c(Cl)c3c2F)cn1` [Example 24, (S)-3-(4-chloro-3-fluoro-2-(2-methylpyrimidin-5-yl)-1H-pyrrolo[2,3-b]pyridin-5-yl)-2,4-dimethylphenol], the IC50 was less than 0.01 µM.
